Experimental findings from patent US20020136733A1, “Malaria peptides” (priority 1994, published 2002) are described below.

Marks after values point to notes of the source that are not given here. Residues, ends and D or L forms follow the SMILES beside them.

T2 sequence (P61769 21-119): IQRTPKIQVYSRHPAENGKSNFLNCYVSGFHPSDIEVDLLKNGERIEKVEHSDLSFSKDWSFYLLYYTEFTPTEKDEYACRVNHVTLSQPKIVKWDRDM
T2 sequence (P01889 25-362): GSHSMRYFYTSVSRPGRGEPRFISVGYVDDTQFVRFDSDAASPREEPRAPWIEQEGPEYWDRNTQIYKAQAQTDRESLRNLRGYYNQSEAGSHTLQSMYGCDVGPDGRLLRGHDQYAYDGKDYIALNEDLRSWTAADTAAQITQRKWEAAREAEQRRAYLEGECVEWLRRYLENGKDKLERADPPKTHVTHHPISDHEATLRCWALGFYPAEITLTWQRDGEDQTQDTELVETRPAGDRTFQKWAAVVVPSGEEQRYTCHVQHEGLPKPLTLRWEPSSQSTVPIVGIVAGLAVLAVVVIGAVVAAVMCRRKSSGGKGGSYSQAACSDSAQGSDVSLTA

The first series addresses T1, HLA-A2 (Homo sapiens, UniProt P04439, D140Y/D185E/D98H/E176V/E277Q/G131W/G231S/I119V/I121R/I166T/I218V/L300P/L318F/N151K/N90K/P208A/P217A/Q86G/Q94H/R138H/R169H/T345S).
T1 construct: using the untransfected T2 cell line (for HLA-A2); endogenous in cells; host or cells: untransfected T2 cell line
Nature of the series: HLA assembly assay, binding to HLA-A2 (untransfected T2 cell line).
Settings: not given
The source says:
(§1) We have recently described a novel approach to identifying CTL epitopes and potential CTL epitopes in P. falciparum^1. This consisted, in brief, of 1) determining a motif for peptides bound to a particular KLA class I molecules, 2) synthesizing peptides from P. falciparum antigens congruent with this motif, 3) testing whether these peptides bind to that HLA class I allele using a binding assay known as a HLA assembly assay, and 4) testing whether lymphocytes from individuals exposed to malaria could recognise these peptides as epitopes after suitable in vitro restimulation and culture. In that work we identified peptide epitopes and potential peptide epitopes for two HLA class I molecules, HLA-B53 and HLA-B35. Here we extend that work to four further HLA class I molecules: HLA-A2, HLA-B8, HLA-B7 and HLA-B17. 52 peptides are identified that are shown either to be epitopes or potential epitopes for these HLA class I molecules.
(§2) As described previously for identification of HLA-B35 and HLA-B53 epitopes^1, peptides were synthesised to correspond to these four motifs from the primary amino acid sequences of four P. falciparum pre-erythrocytic antigens: CSP, TRAP, LSA-1 and SHEBA. Over one hundred peptides were synthesized. Binding assays^7 were performed on selected peptides to determine whether they bound to HLA-A2, -B7, -B8, or -B58 using the untransfected T2 cell line (for HLA-A2) or the T2 cell line transfected with HLA-B7 (used to assess binding to HLA-B7s), or with HLA-B8 (used to assess binding to HLA-B8), or with HLA-B58 (used to assess binding to HLA-B58).
Regarding “LLMDCSGSI [tr29, TRAP peptide, position 51, HLA-A2]”, the “binding to HLA-A2 in the HLA assembly assay” value was “bound”. The same measure, in the same setting: with “GIYKELEDL [ls19, LSA-1 peptide, position 1801, HLA-A2]” the entry was “bind”; with ILYISFYFI [ls10], “bind”; with “HIFDGDNEI [ls23, LSA-1 peptide, position 1883, HLA-A2]”, “bind”. Turning to YISFYFILV [ls11], the “binding to HLA-A2 in the HLA assembly assay” value was “bind”.

Another series has as its system HLA-B17. Description: HLA assembly assay, binding to HLA-B17 (T2 cell line transfected with HLA-B58). More on the design: species or system human.
Settings: not given
Text: as §1
The peptide binding motifs of HLA-A2, HLA-B7 and HLA-B8 have been described. For HLA-A2 strong preferences were found at positions 2 and 9 of bound peptides: for leucine, isoleucine and methionine at position 2, and for valine, leucine and isoleucine at position 9^3, 4 For HLA-B7 the preferred residues were proline at position 2 and a hydrophobic residue at position 9. Leucine, isoleucine, valine, alanine, phenylalanine and tryptophan were the hydrophobic residues preferred^5. For HLA-B8 preferred residues were found at positions 3, 5 and 9^6. At positions 3 and 5 lysine or arginine are preferred and at position 9, leucine or isoleucine or valine. The motif for peptides bound to HLA-B17 has not been reported so we determined this exactly as described for HLA-B35^1, using instead of the cell line CIR-B35, the cell line CIR-B58.
(§3) As described previously for identification of HLA-B35 and HLA-B53 epitopes^1, peptides were synthesised to correspond to these four motifs from the primary amino acid sequences of four P. falciparum pre-erythrocytic antigens: CSP, TRAP, LSA-1 and SHEBA. Over one hundred peptides were synthesized. […]
On to “GSANKPKDEL [cp55, circumsporozoite protein peptide, position 364, HLA-B17]”, for which the “binding to HLA-B17 in the HLA assembly assay” value is recorded as “bind”. The same measure, in the same setting: with “LSVSSFLFV [cp48, circumsporozoite protein peptide, position 8, HLA-B17]” the entry was “bind”; with “CSSVFNVV [cp56, circumsporozoite protein peptide, position 388, HLA-B17]”, “bind”.

The next series has as its system HLA-B8. Nature of the series: HLA assembly assay, binding to HLA-B8 (T2 cell line transfected with HLA-B8). On the set-up: species or system human.
Settings: not given
Text: as §1, §3
With “LRKPKHKKL [cp43, circumsporozoite protein peptide, position 134, HLA-B8]”, the “binding to HLA-B8 in the HLA assembly assay” value is given as “bound”.

A further series has as its target T2, HLA-B7 (Homo sapiens, UniProt P01889).
T2 construct: expressed in transfected cells; host or cells: T2 cell line
Test: not given
Settings: not given
It is filed as binding.
Text: as §1, §2
In the case of MPLETQLAI [sh6], the “binding to HLA-B7 in the HLA assembly assay” value (from here on “binding to HLA-B7”) was “bind”.

The same series, now with this note: T2 cell line transfected with HLA-B7.
With EPAPFDETL [tr15], the “binding to HLA-B7” value was “bind”.

On to NPDPNANPNV [cp21], for which the “binding to HLA-B7” value was “bind”.

With “IPSLALMLI [sh1, SHEBA peptide, position 7, HLA-B7]”, the “binding to HLA-B7” value is given as “bind”. Same read-out and setting: with “KPIVQYDNF [ls6, LSA-1 peptide, position 1786, HLA-B7]” the entry was “bind”; with GPFMKAVCV [tr21], “bind”; with “NPENPPNPDI [tr6, TRAP peptide, position 348, HLA-B7]”, “bind”. Take IPDSIQDSL [tr13]: the “binding to HLA-B7” value was “bind”.

Another series relates to HLA matched or autologous B cell line targets pre-pulsed with the peptide. Nature of the series: CTL chromium release assay with restimulated lymphocytes from malaria-exposed Gambians. As to conditions: Gambian adults with HLA-B8 (Z42, Z130, Z80, Z169); 10% or greater specific lysis regarded as significant. The series is classed as cell-based, human. The protocol: Peptides shown to bind to a particular HLA class I allele were tested for CTL recognition in assays using lymphocytes from malaria-exposed Gambians, as described previously^1. A minority of peptides, synthesized to correspond to a peptides binding motif were not tested in the relevant assembly assay but tested only for CTL recognition. Cells from 82 adult Gambians and 53 Gambian children, all exposed to malaria, were used in the course of these studies. The children and adults were HLA typed using cellular or molecular techniques as described previously^1. Peptides were incubated with cells either singly, or in pools as described^1 at concentrations of 10-100 μM. Peptides could either be left with the cells for the duration of restimulation (as reported^1) or washed off after an hour. Cells were cultured for 1-3 weeks before a standard CTL chromium release assay^1 was performed using HLA matched or autologous B cell line targets pre-pulsed with the peptide to be tested. Peptides were tested either singly or in pools for CTL recognition.
Regarding “LRKPKHKKL [cp43, circumsporozoite protein peptide, position 134, HLA-B8]”, the “CTL recognition / lysis of peptide-pulsed target cells” value was “HLA-B8-restricted CTL epitope”.

The same series, now with this note: asterisk beside the label in the table; HLA class I molecule.
`CC[C@H](C)[C@H](NC(=O)[C@H](CCCCN)NC(=O)[C@H](CCC(N)=O)NC(=O)[C@H](CC(C)C)NC(=O)[C@@H](N)Cc1ccc(O)cc1)C(=O)N[C@@H](CCC(N)=O)C(=O)N[C@@H](CC(N)=O)C(=O)N[C@@H](CO)C(=O)N[C@@H](CC(C)C)C(=O)O` [cp37, YLQKIQNSL] (H-YLQKIQNSL-OH; N-terminus and C-terminus assumed): the “identified as an epitope for a secondary cytotoxic T lymphocyte response” value (“identified as an epitope” below) was “cp37 *”. The same measure, in the same setting: next, `CC(C)C[C@H](NC(=O)[C@H](C)NC(=O)[C@H](CCCCN)NC(=O)[C@H](CCC(=O)O)NC(=O)[C@H](CCCCN)NC(=O)[C@H](CC(N)=O)NC(=O)[C@H](CCCCN)NC(=O)[C@H](CO)NC(=O)[C@H](C)N)C(=O)O` [tr42, ASKNKEKAL] (H-ASKNKEKAL-OH; N-terminus and C-terminus assumed): “tr42 *”; `CSCC[C@H](N)C(=O)N1CCC[C@H]1C(=O)N[C@@H](CC(N)=O)C(=O)N[C@@H](Cc1ccc(O)cc1)C(=O)N1CCC[C@H]1C(=O)N[C@@H](CC(N)=O)C(=O)N[C@@H](CCCNC(=N)N)C(=O)N[C@@H](CC(N)=O)C(=O)N[C@H](C(=O)O)C(C)C` [cp6.1, MPNYPNRNV] (H-MPNYPNRNV-OH; N-terminus and C-terminus assumed): “cp6.1 *”; `CSCC[C@H](N)C(=O)N1CCC[C@H]1C(=O)N[C@@H](CC(N)=O)C(=O)N[C@@H](CC(N)=O)C(=O)N1CCC[C@H]1C(=O)N[C@@H](CC(N)=O)C(=O)N[C@@H](CCCNC(=N)N)C(=O)N[C@@H](CC(N)=O)C(=O)N[C@H](C(=O)O)C(C)C` [cp6.2, MPNNPNRNV] (H-MPNNPNRNV-OH; N-terminus and C-terminus assumed): “cp6.2 *”. Still for that read-out and setting: next, `CC(C)C[C@H](NC(=O)[C@H](Cc1ccc(O)cc1)NC(=O)[C@H](CCCCN)NC(=O)[C@@H](NC(=O)[C@H](CC(N)=O)NC(=O)CNC(=O)[C@H](CC(C)C)NC(=O)[C@@H](N)Cc1c[nH]cn1)C(C)C)C(=O)N[C@H](C(=O)O)C(C)C` [tr26, HLGNVKYLV] (H-HLGNVKYLV-OH; N-terminus and C-terminus assumed): “tr26 *”; `CC[C@H](C)[C@H](NC(=O)[C@@H](NC(=O)[C@H](CC(C)C)NC(=O)[C@H](C)NC(=O)[C@H](CCCCN)NC(=O)[C@H](CCC(=O)O)NC(=O)[C@H](CCCCN)NC(=O)[C@H](CC(N)=O)NC(=O)[C@@H](N)CCCCN)[C@@H](C)CC)C(=O)O` [tr43, KNKEKALII] (H-KNKEKALII-OH; N-terminus and C-terminus assumed): “tr43 *”. Regarding `CC[C@H](C)[C@H](NC(=O)[C@H](CCCCN)NC(=O)[C@H](CCC(N)=O)NC(=O)[C@H](CC(C)C)NC(=O)[C@@H](N)Cc1ccc(O)cc1)C(=O)N[C@@H](CCCCN)C(=O)N[C@@H](CC(N)=O)C(=O)N[C@@H](CO)C(=O)N[C@@H](CC(C)C)C(=O)O` [cp38, YLQKIKNSL] (H-YLQKIKNSL-OH; N-terminus and C-terminus assumed), the “identified as an epitope” value was “cp38 *”.

Take `CC[C@H](C)[C@H](NC(=O)CN)C(=O)N[C@@H](C)C(=O)NCC(=O)NCC(=O)N[C@@H](CC(C)C)C(=O)N[C@@H](C)C(=O)N[C@@H](CC(C)C)C(=O)N[C@@H](CC(C)C)C(=O)O` [tr39, GIAGGLALL] (H-GIAGGLALL-OH; N-terminus and C-terminus assumed): the “identified as an epitope” value was “tr39 *”. Same read-out and setting: with `CC[C@H](C)[C@H](NC(=O)[C@@H](NC(=O)[C@H](CCCCN)NC(=O)[C@H](CC(C)C)NC(=O)[C@@H](N)Cc1ccc(O)cc1)[C@@H](C)O)C(=O)N[C@@H](CCC(N)=O)C(=O)N[C@@H](CC(N)=O)C(=O)N[C@@H](CO)C(=O)N[C@@H](CC(C)C)C(=O)O` [cp36, YLKTIQNSL] (H-YLKTIQNSL-OH; N-terminus and C-terminus assumed) the entry was “cp36 *”.
